# Tests used:
# [1] = target: T1, Alpha-2A adrenergic receptor (Homo sapiens) (UniProt P08913); assay: Selectivity interaction (Panel of non-epigenetic targets (kinases, GPCRs, ion channels, and transporters, Eurofins) ) EUB0000271b ADRA2A; settings: at 1 µM
# T1 sequence (whole entry): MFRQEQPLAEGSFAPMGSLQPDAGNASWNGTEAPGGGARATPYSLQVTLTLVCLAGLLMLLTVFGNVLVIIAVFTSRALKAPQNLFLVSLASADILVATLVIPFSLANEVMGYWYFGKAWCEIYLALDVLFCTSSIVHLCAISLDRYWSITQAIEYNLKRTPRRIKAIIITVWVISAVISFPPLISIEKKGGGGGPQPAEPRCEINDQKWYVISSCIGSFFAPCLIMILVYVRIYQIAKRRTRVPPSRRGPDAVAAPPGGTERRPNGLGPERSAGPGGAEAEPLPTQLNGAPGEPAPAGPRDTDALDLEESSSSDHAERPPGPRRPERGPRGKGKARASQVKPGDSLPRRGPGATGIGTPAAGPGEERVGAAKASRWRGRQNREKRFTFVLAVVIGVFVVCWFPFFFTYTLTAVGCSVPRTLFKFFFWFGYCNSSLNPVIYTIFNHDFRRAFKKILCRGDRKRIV
# [2] = target: T2, Ephrin type-B receptor 4 (Homo sapiens) (UniProt P54760); assay: Selectivity interaction (Ambit KINOMEscan and KiNATiv profiling in Jurkat cells) EUB0000090b EPHB4; type: cell-based; settings: at 1 µM
# T2 sequence (whole entry): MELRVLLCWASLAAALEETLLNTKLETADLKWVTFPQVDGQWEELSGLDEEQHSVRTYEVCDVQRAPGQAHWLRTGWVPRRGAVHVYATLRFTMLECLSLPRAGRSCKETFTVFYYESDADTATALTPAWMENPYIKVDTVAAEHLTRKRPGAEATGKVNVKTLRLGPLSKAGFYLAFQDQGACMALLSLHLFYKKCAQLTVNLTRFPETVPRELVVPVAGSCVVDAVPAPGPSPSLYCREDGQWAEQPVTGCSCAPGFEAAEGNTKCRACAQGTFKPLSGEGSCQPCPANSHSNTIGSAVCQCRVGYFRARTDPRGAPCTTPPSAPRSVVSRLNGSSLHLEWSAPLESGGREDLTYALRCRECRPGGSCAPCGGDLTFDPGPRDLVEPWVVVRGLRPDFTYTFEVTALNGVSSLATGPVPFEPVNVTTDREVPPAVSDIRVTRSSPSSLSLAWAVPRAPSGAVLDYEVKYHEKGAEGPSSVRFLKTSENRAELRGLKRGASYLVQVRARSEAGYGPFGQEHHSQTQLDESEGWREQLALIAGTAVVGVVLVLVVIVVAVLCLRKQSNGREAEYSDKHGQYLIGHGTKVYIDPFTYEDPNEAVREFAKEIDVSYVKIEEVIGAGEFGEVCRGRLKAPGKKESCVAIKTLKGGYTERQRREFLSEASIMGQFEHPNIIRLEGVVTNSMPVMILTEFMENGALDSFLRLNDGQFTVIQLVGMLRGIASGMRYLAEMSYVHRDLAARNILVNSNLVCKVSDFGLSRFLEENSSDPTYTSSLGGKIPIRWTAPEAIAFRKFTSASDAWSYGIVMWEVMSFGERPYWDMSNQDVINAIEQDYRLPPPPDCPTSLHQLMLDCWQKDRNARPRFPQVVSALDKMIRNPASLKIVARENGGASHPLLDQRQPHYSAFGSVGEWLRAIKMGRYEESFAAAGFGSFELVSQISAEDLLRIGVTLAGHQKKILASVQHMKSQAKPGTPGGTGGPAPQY
# [3] = target: MAP kinase-interacting serine/threonine-protein kinase 2 (Homo sapiens, UniProt Q9HBH9); assay: Selectivity interaction (KinomeScan (DiscoverX)) EUB0001079a MKNK2; settings: at 1 µM
# [4] = target: MAP/microtubule affinity-regulating kinase 3 (Homo sapiens) (UniProt P27448); assay: Selectivity interaction (ActivX KiNativ screen (ex vivo kinase selectivity in human PBMCs)) EUB0001619a MARK3; type: cell-based; settings: PBMC, at 1 µM
# [5] = target: Dual specificity mitogen-activated protein kinase kinase 1 (Homo sapiens, UniProt Q02750); assay: Selectivity interaction (Kinase panel (KiNativ target engagement assay in Jurkat cells)) EUB0001635a MAP2K1; type: cell-based; settings: Selectivity number of off-targets 0.0, Selectivity number of targets 233.0, Source Knowledge https://www.sciencedirect.com/science/article/pii/S2451945619300674?via%3Dihub, at 1 µM
# Sequence of Dual specificity mitogen-activated protein kinase kinase 1 (Q02750 whole entry, canonical isoform): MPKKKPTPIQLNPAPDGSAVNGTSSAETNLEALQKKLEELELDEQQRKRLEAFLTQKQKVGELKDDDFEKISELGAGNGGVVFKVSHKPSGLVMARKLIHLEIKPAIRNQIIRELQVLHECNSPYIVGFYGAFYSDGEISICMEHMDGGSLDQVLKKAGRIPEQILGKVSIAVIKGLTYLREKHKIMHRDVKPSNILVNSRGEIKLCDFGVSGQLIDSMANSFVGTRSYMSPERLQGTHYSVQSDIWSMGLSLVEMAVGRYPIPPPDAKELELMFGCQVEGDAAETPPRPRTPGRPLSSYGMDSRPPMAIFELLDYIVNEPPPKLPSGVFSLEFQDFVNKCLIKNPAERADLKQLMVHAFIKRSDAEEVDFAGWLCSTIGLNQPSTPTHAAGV
# [6] = target: Phosphatidylinositol 4,5-bisphosphate 3-kinase catalytic subunit gamma isoform (Homo sapiens) (UniProt P48736); assay: Selectivity interaction (Kinase panel (KiNativ target engagement assay in Jurkat cells)) EUB0001635a PIK3CG; type: cell-based; settings: at 1 µM
# Sequence of Phosphatidylinositol 4,5-bisphosphate 3-kinase catalytic subunit gamma isoform (Homo sapiens) (P48736 whole entry, looked up, canonical isoform): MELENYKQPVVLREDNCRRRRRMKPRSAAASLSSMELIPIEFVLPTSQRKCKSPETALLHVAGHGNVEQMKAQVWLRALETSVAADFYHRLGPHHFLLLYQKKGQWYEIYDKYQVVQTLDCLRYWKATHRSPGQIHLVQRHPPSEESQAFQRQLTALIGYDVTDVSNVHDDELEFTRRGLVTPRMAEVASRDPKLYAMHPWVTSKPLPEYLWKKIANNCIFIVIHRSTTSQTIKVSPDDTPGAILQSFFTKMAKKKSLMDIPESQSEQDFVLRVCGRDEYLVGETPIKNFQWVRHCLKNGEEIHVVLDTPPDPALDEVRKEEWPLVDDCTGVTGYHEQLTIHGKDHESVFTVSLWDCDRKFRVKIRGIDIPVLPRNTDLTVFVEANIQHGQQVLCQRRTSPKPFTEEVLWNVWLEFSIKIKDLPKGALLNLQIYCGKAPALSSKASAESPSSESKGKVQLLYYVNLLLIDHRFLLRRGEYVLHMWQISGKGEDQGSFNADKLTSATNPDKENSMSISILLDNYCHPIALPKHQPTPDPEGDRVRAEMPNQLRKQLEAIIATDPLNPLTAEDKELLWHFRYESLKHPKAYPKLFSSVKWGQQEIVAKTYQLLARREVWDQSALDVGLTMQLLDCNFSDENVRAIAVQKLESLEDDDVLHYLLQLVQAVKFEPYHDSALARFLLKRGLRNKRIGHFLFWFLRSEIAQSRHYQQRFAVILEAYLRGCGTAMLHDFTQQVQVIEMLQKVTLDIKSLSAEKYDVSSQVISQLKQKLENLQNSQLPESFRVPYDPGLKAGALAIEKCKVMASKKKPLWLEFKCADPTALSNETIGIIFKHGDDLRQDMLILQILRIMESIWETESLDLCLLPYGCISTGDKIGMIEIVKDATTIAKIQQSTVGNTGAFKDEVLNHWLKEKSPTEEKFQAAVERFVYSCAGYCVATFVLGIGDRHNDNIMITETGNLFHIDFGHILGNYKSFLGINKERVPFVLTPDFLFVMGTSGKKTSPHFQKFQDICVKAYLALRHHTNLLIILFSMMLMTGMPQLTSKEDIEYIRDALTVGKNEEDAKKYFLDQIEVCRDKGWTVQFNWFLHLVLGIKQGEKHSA
# [7] = target: Serine/threonine-protein kinase Nek4 (Homo sapiens) (UniProt P51957); settings: at 10 µM
# Sequence of Serine/threonine-protein kinase Nek4 (Homo sapiens) (P51957 whole entry, looked up): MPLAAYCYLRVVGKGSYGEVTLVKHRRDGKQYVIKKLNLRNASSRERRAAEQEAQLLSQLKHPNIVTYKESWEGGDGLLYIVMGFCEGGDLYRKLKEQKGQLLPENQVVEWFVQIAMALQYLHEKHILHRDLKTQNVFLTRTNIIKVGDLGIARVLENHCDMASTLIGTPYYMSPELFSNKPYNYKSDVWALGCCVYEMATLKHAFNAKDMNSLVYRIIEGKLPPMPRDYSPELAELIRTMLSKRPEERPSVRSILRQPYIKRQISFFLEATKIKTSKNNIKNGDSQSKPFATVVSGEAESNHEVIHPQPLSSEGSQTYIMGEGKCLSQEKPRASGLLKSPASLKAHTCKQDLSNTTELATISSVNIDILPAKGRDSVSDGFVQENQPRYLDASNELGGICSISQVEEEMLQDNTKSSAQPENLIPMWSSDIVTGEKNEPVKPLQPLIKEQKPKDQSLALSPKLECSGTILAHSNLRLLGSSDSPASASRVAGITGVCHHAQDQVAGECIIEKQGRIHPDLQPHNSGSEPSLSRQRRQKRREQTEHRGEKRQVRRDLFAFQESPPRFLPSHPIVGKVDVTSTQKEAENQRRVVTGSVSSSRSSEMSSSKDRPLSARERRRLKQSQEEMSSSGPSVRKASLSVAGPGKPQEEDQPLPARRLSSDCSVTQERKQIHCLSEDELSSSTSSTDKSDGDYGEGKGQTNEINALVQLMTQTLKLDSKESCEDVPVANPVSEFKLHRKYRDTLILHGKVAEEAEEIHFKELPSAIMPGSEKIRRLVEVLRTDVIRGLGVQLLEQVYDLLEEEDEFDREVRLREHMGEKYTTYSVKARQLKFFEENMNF
# [8] = target: Mitogen-activated protein kinase 9 (Homo sapiens, UniProt P45984); assay: Selectivity interaction (ActivX KiNativ screen (kinase selectivity in THP-1 cell lysates)) EUB0000639a MAPK9; type: subcellular; settings: lysate, at 1 µM
# [9] = target: STE20-like serine/threonine-protein kinase (Homo sapiens, UniProt Q9H2G2); assay: Selectivity interaction (KinomeScan (DiscoverX)) EUB0000229b SLK; settings: at 10 µM
# Sequence of STE20-like serine/threonine-protein kinase (Q9H2G2 whole entry, looked up): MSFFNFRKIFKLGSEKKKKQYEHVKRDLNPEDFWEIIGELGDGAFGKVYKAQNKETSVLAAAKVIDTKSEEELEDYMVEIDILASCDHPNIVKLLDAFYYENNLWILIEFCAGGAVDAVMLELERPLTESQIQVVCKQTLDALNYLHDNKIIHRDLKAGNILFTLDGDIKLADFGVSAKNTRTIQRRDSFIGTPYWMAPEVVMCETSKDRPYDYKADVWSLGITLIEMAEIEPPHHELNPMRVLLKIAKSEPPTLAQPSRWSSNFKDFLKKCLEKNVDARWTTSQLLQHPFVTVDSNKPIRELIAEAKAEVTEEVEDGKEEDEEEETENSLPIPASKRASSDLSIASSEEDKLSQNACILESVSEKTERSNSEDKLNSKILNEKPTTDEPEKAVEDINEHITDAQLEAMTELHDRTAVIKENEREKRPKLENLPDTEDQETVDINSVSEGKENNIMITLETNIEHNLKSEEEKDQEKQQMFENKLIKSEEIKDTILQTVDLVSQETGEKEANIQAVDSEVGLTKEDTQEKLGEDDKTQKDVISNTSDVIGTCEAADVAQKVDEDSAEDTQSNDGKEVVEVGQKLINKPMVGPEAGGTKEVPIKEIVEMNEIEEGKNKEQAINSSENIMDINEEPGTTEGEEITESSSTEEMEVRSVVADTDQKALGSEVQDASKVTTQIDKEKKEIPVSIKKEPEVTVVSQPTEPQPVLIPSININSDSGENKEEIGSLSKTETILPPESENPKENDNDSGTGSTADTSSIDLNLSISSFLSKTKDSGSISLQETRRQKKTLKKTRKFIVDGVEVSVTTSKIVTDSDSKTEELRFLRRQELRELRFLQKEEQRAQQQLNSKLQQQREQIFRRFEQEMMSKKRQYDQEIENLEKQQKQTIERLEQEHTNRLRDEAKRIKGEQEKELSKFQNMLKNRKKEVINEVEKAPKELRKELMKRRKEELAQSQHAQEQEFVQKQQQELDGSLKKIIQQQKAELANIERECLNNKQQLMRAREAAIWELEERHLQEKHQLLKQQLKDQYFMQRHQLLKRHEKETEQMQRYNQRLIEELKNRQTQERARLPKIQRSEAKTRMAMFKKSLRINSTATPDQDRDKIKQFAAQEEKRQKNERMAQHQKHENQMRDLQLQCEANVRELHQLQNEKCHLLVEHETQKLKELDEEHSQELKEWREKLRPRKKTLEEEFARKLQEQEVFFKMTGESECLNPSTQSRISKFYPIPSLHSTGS
# [10] = target: RAC-alpha serine/threonine-protein kinase (Homo sapiens, UniProt P31749); assay: Selectivity interaction (KinomeScan (DiscoverX)) EUB0000092b AKT1; settings: at 10 µM
# [11] = target: Homeodomain-interacting protein kinase 2 (Homo sapiens, UniProt Q9H2X6); assay: Selectivity interaction (KinomeScan (DiscoverX)) EUB0000092b HIPK2; settings: at 10 µM
# Sequence of Homeodomain-interacting protein kinase 2 (Q9H2X6 whole entry, looked up): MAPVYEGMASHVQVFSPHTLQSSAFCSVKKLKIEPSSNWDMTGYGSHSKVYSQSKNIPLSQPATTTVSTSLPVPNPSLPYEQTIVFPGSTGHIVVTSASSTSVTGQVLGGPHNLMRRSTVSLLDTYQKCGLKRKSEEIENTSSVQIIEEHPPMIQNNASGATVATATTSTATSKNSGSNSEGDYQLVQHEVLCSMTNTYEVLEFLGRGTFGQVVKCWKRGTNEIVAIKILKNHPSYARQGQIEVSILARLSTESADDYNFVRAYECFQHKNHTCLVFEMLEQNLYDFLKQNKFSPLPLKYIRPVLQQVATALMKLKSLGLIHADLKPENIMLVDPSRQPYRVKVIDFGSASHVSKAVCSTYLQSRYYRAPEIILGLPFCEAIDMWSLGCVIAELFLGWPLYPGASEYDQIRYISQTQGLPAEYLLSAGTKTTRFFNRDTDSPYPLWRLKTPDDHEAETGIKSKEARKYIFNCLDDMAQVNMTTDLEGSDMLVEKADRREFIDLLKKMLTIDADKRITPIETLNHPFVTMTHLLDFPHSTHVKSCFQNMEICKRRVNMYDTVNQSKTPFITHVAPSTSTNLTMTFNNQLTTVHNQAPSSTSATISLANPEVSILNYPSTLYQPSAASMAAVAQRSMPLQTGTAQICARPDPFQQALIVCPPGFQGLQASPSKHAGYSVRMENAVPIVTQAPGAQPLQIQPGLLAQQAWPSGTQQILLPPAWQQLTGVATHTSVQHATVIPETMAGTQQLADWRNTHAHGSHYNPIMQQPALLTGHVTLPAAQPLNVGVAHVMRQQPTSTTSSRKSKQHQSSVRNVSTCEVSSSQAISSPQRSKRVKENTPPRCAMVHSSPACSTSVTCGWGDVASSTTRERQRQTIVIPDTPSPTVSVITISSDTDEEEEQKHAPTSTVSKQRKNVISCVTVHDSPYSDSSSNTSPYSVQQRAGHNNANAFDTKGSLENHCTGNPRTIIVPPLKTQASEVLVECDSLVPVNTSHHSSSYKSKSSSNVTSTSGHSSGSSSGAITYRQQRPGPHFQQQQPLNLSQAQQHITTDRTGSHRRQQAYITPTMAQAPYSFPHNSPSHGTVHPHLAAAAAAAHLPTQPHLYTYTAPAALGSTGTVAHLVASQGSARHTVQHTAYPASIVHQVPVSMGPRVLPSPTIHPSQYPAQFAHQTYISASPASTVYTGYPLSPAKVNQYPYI
smiles,measurement,setting,value
Cc1cc(C)cc([C@@H]2c3cc(C)ccc3NC(=O)CN2C(=O)c2ccc(Br)s2)c1,% of inhibition,[1],-8%
CN(C)C/C=C/C(=O)Nc1ccc(C(=O)N2CCCC(Nc3ncc(Cl)c(-c4c[nH]c5ccccc45)n3)C2)cc1 (stereo unspecified),% of control,[2],94%
Nc1cnc(N2CCc3cc(S(=O)(=O)Nc4c(F)cc(Cl)cc4F)cc(N4CCCC4=O)c32)nc1 [TP-020n],% of control,[3],100%
N#Cc1cccc(-c2c[nH]c3ncnc(N4CCOCC4)c23)c1,% of inhibition,[4],24%
C=CC(=O)Nc1ccc(C(=O)Nc2[nH]nc3c2CN(C(=O)N[C@H](CN(C)C)c2ccccc2)C3(C)C)cc1,% of engagement,[5],-2.4%
same,% of engagement,[6],-3.7%
Cc1cc([C@@H](C)Nc2ccccc2C(=O)O)c2nc(N3CCOCC3)cc(=O)n2c1 [AZD-6482],% of control,[7],61%
CC[C@@H]1[C@H](F)C(=O)N[C@@H]1COc1nccc2cc(C(N)=O)c(OC)cc12 [ZIMLOVISERTIB],% of inhibition,[8],-5.9%
COc1cc(N(C)c2ccnc3ccc(C(F)(F)F)cc23)cc(OC)c1OC,% binding,[9],31%
CCC(=O)N1CCN(c2ccc(-n3c(=O)ccc4cnc5ccc(-c6cnc7ccccc7c6)cc5c43)cc2C(F)(F)F)CC1,% of control,[10],91%
same,% of control,[11],58%
